Patent US20050171358A1 (priority 2002, published 2005)

What was measured:
[1] = test system: Colletotrichum lagenarium; details: 200 ppm spray on cucumber (3 leaf stage), inoculated next day; lesion numbers on first and second leaves after 7 days in green house, graded by Table 5
Pyricularia oryzae = format: in vivo; details: 200 ppm spray on rice (Koshihikari, 3 leaf stage), inoculated next day; lesion numbers on third leaves after 7 days in green house, graded by Table 5

| Structure (SMILES) | Evaluation (effect for cucumber anthracnose) [1] | Evaluation (effect for rice blast) (Pyricularia oryzae) |
| --- | --- | --- |
| CC(C)Cc1cc(CNC(=O)c2ccc(Br)cc2)on1 [III-256, N-[(3-isobutyl-5-isoxazolyl)methyl]-4-bromobenzamide] | 5 (0) | 5 (0) |
| CC(C)Cc1cc(CNC(=O)c2ccc(C(F)(F)F)cc2)on1 [III-257, N-[(3-isobutyl-5-isoxazolyl)methyl]-4-trifluoromethylbenzamide] | 4 (1˜5) | 3 (6˜10) |
| CCc1ccc(C(=O)NCc2cc(CC(C)C)no2)cc1 [III-258, N-[(3-isobutyl-5-isoxazolyl)methyl]-4-ethylbenzamide] | 4 (1˜5) | 5 (0) |
| CC(C)Cc1cc(CNC(=O)c2ccc3ccccc3c2)on1 [III-259, N-[(3-isobutyl-5-isoxazolyl)methyl]-2-naphthalenecarboxamide] | 4 (1˜5) | 5 (0) |
| CC(C)Cc1cc(CNC(=O)c2cccc3ccccc23)on1 [III-262, N-[(3-isobutyl-5-isoxazolyl)methyl]-1-naphthalenecarboxamide] | 5 (0) | 5 (0) |
| CCCc1cc(CNC(=O)c2ccc(Cl)cc2)on1 [III-263, N-[(3-propyl-5-isoxazolyl)methyl]-4-chlorobenzamide] | 5 (0) | 5 (0) |
| CCCc1cc(CNC(=O)c2ccc(Br)cc2)on1 [III-264, N-[(3-propyl-5-isoxazolyl)methyl]-4-bromobenzamide] | 5 (0) | 5 (0) |
| CCCc1cc(CNC(=O)c2ccc(Cl)cc2Cl)on1 [III-265, N-[(3-propyl-5-isoxazolyl)methyl]-2,4-dichlorobenzamide] | 4 (1˜5) | 5 (0) |
| O=C(NCc1cc(CBr)no1)c1ccc(Cl)cc1Cl [III-275, N-[(3-bromomethyl-5-isoxazolyl)methyl]-2,4-dichlorobenzamide] | 2 (11˜20) | 2 (11˜20) |
| O=C(NCc1cc(Cc2ccccc2)no1)c1ccccc1 [IV-1, N-[(3-benzyl-5-isoxazolyl)methyl]benzamide] | 5 (0) | 5 (0) |
| COc1ccc(C(=O)NCc2cc(Cc3ccccc3)no2)cc1 [IV-2, N-[(3-benzyl-5-isoxazolyl)methyl]-4-methoxybenzamide] | 5 (0) | 5 (0) |
| Cc1ccc(C(=O)NCc2cc(Cc3ccccc3)no2)cc1 [IV-3, N-[(3-benzyl-5-isoxazolyl)methyl]-4-methylbenzamide] | 5 (0) | 5 (0) |
| O=C(NCc1cc(Cc2ccccc2)no1)C1CCCCC1 [IV-4, (3-benzyl-5-isoxazolyl)methylaminocarbonylcyclohexane] | 4 (1˜5) | 4 (1˜5) |
| COc1ccc(Cc2cc(CNC(=O)c3ccc(OC)cc3)on2)cc1 [IV-9, N-{[3-(4-methoxybenzyl)-5-isoxazolyl]methyl}-4-methoxybenzamide] | 5 (0) | 5 (0) |
| Cc1ccc(Cc2cc(CNC(=O)c3ccc(C)cc3)on2)cc1 [IV-10, N-{[3-(4-methylbenzyl)-5-isoxazolyl]methyl}-4-methylbenzamide] | 5 (0) | 5 (0) |
| Cc1ccc(C(=O)NCc2cc(Cc3cccc(C)c3)no2)cc1 [IV-11, N-{[3-(3-methylbenzyl)-5-isoxazolyl]methyl}-4-methylbenzamide] | 5 (0) | 5 (0) |
| Cc1ccc(C(=O)NCc2cc(Cc3ccccc3C)no2)cc1 [IV-12, N-{[3-(2-methylbenzyl)-5-isoxazolyl]methyl}-4-methyl benzamide] | 5 (0) | 5 (0) |
| CC(c1ccccc1)c1cc(CNC(=O)c2ccccc2)on1 (centres unmarked) [IV-29, N-{[3-(1-phenylethyl)-5-isoxazolyl]methyl}benzamide] | 3 (6˜10) | 3 (6˜10) |
| O=C(NCc1cc(CCc2ccccc2)no1)c1ccccc1 [IV-33, N-{[3-(2-phenylethyl)-5-isoxazolyl]methyl}benzamide] | 5 (0) | 5 (0) |
| COc1ccc(C(=O)NCc2cc(CCc3ccccc3)no2)cc1 [IV-34, N-{[3-(2-phenylethyl)-5-isoxazolyl]methyl}-4-methoxybenzamide] | 5 (0) | 5 (0) |

| Structure (SMILES) | Evaluation (effect for cucumber anthracnose) [1] | Evaluation (effect for rice blast) (Pyricularia oryzae) |
| --- | --- | --- |
| Cc1ccc(C(=O)NCc2cc(CCc3ccccc3)no2)cc1 [IV-35, N-{[3-(2-phenylethyl)-5-isoxazolyl]methyl}-4-methylbenzamide] | 5 (0) | 5 (0) |
| Cc1ccc(C(=O)NCc2cc(CSc3ccccc3)no2)cc1 [IV-40, N-[(3-phenylthiomethyl-5-isoxazolyl)methyl]-4-methylbenzamide] | 2 (11˜20) | 3 (6˜10) |
| O=C(NCc1cc(COc2ccccc2)no1)c1ccccc1 [IV-44, N-[(3-phenoxymethyl-5-isoxazolyl)methyl]benzamide] | 5 (0) | 5 (0) |
| COc1ccc(C(=O)NCc2cc(COc3ccccc3)no2)cc1 [IV-45, N-[(3-phenyloxymethyl-5-isoxazolyl)methyl]-4-methoxy benzamide] | 5 (0) | 5 (0) |
| Cc1ccc(C(=O)NCc2cc(COc3ccccc3)no2)cc1 [IV-46, N-[(3-phenoxymethyl-5-isoxazolyl)methyl]-4-methylbenzamide] | 5 (0) | 5 (0) |
| COc1ccc(C(=O)NCc2cc(COc3ccccc3C)no2)cc1 [IV-47, N-{[3-(2-methylphenyl)oxymethyl-5-isoxazolyl]methyl}-4-methoxy benzamide] | 5 (0) | 5 (0) |
| COc1ccc(C(=O)NCc2cc(COc3cccc(C)c3)no2)cc1 [IV-48, N-{[3-(3-methylphenyl)oxymethyl-5-isoxazolyl]methyl}-4-methoxybenzamide] | 2 (11˜20) | 3 (6˜10) |
| Cc1ccc(C(=O)NCc2cc(COc3cccc(C)c3)no2)cc1 [IV-49, N-{[3-(3-methylphenyl)oxymethyl-5-isoxazolyl]methyl}-4-methylbenzamide] | 2 (11˜20) | 2 (11˜20) |
| COc1ccc(C(=O)NCc2cc(COc3ccc(C)cc3)no2)cc1 [IV-50, N-{[3-(4-methylphenyl)oxymethyl-5-isoxazolyl]methyl}-4-methoxybenzamide] | 4 (1˜5) | 5 (0) |
| COc1ccc(C(=O)NCc2cc(COc3cccc(C#N)c3)no2)cc1 [IV-52, N-{[3-(3-cyanophenyl)oxymethyl-5-isoxazolyl]methyl}-4-methoxybenzamide] | 2 (11˜20) | 3 (6˜10) |
| COc1ccc(C(=O)NCc2cc(COc3ccc(C#N)cc3)no2)cc1 [IV-53, N-([3-(4-cyanophenyl)oxymethyl-5-isoxazolyl]methyl}-4-methoxybenzamide] | 5 (0) | 5 (0) |
| COc1ccc(C(=O)NCc2cc(COc3ccccc3OC)no2)cc1 [IV-54, N-{[3-(2-methoxyphenyl)oxymethyl-5-isoxazolyl]methyl}-4-methoxybenzamide] | 4 (1˜5) | 3 (6˜10) |
| COc1ccc(C(=O)NCc2cc(COc3cccc(OC)c3)no2)cc1 [IV-55, N-{[3-(3-methoxyphenyl)oxymethyl-5-isoxazolyl]methyl}-4-methoxybenzamide] | 4 (1˜5) | 4 (1˜5) |
| COc1ccc(OCc2cc(CNC(=O)c3ccc(OC)cc3)on2)cc1 [IV-56, N-{[3-(4-methoxyphenyl)oxymethyl-5-isoxazolyl]methyl}-4-methoxybenzamide] | 2 (11˜20) | 3 (6˜10) |
| COc1ccc(C(=O)NCc2cc(COc3ccccc3F)no2)cc1 [IV-57] | 5 (0) | 5 (0) |
| COc1ccc(C(=O)NCc2cc(COc3cccc(F)c3)no2)cc1 [IV-58, N-{[3-(3-fluorophenyl)oxymethyl-5-isoxazolyl]methyl}-4-methoxybenzamide] | 5 (0) | 5 (0) |
| COc1ccc(C(=O)NCc2cc(COc3ccc(F)cc3)no2)cc1 [IV-59, N-{[3-(4-fluorophenyl)oxymethyl-5-isoxazolyl]methyl}-4-methoxybenzamide] | 5 (0) | 5 (0) |
| COc1ccc(C(=O)NCc2cc(COc3ccc([N+](=O)[O-])cc3)no2)cc1 [IV-60, N-{[3-(4-nitrophenyl)oxymethyl-5-isoxazolyl]methyl}-4-methoxybenzamide] | 5 (0) | 5 (0) |
| COc1ccc(C(=O)NCc2cc(COc3ccc(-n4cncn4)cc3)no2)cc1 [IV-73] | 3 (6˜10) | 2 (11˜20) |
| COc1ccc(C(=O)NCc2cc(CON=Cc3ccccc3)no2)cc1 [IV-74, {3-[(4-methoxyphenyl)carbonylaminomethyl]-5-isoxazolyl]methoxyiminobenzyl] | 3 (6˜10) | 4 (1˜5) |
